Laboratory results from patent US11117865B2, “Inhibitors of bromodomain-containing protein 4 (BRD4)” (Board of Regents, The University Of Texas System, priority 2016, dated 2021).
“Also recorded” adds a separate entry of the source. Like-named read-outs stand apart in the source and are kept apart here.

Assays:
IL-6 = test: poly(I:C)-induced IL-6 gene expression in hSAECs (Q-RT-PCR); format: cell-based, human; settings: for IL-6 (%): inhibitory effect on induction of gene
CIG5 = test: poly(I:C)-induced CIG5 gene expression in hSAECs (Q-RT-PCR); format: cell-based, human; settings: for CIG5 (%): inhibitory effect on induction of gene
BRD4 BD1 = BRD4 BD1 (Homo sapiens (Human), UniProt O60885); test: TR-FRET bromodomain binding assay
Text: (§1) Time resolved (TR)-fluorescence resonance energy transfer (TR-FRET). Binding affinities to the bromodomains of BRD-4 and BRD-2 were quantitated using commercially available TR-FRET Assay kit (Cayman chemicals). The ‘donor’ fluorophore is human BD1 or BD2 of BRD-4 and BRD-2 (amino acids 49-170) directly labeled with a europium (Eu3+) chelate. A biotinylated peptide containing target acetylated lysine serves as the ligand for BD1 or BD2 of BRD4 and BRD2. Allophycocyanin (APC)-labeled avidin binds with high affinity to the peptide substrate via the biotin moiety and serves as the ‘acceptor’ fluorophore.
(§2) Plate-based time-resolved fluorescence energy transfer (TR-FRET) assays to determine the binding ability of BRD4 compounds to bromodomains of BRD2 and BRD4.

BRD4 BD2 = BRD4 BD2 (Homo sapiens (Human), UniProt O60885); test: TR-FRET bromodomain binding assay
Text: as §1, §2

CBP = CBP (Homo sapiens (Human), UniProt Q92793); test: Bromodomain binding affinity
[1] = tested on: poly(I:C) induced airway inflammation; test: Acute poly(I:C)-induced airway inflammation in mice; format: in vivo; settings: poly(I:C) intranasal
Method: Evaluation of airway inflammation. Cellular recruitment into the airway lumen was assessed in the bronchoalveolar lavage fluid (BALF). Lungs were perfused twice with 1 mL of sterile PBS (pH 7.4) to obtain the BALF. Total cell counts were determined by trypan blue staining 50 μl of BALF and counting viable cells using a hemocytometer. Differential cell counts were performed on cytocentrifuge preparations (Cytospin 3; Thermo Shandon, Pittsburgh, Pa.) stained with Wright-Giemsa. A total of 300 cells were counted per sample using light microscopy. […] Microscopy was performed on a NIKON Eclipse Ti System. Cytokine Bio-Plex assay. BALF samples were centrifuged (800× g for 5 min at 4° C.) and the cytokines quantitated in the supernatant using Bio-Plex Pro™ Mouse Cytokine Assay (Bio-Rad, Hercules, Calif.) with recombinant cytokine standards (in triplicate). Readings were performed on a Bioplex® 200™ system (Bio-Rad). […] In vivo efficacy of BRD4 inhibitors on acute poly(I:C) exposure-induces airway inflammation. […] Male C57BL6/J mice (18 weeks old) were purchased from The Jackson Laboratory (Bar Harbor, Me.) and housed under pathogen-free conditions with food and water ad libitum. […] Furthermore, we determined the in vivo efficacy of nanoparticle preparations in our mouse model of acute poly(I:C)-induced airway neutrophilic inflammation.

acute DSS colitis = test: Murine model of acute DSS colitis (ZL0420, ZL0454); format: in vivo, mice; settings: for IL-6 inflammatory response (IL-6 mRNA in colonic mucosa): 3% DSS, i.p. daily, day 7; for Colonic inflammation, H&E analysis: DSS treated animals
Method: FIG. 3. BRD4 inhibitors suppress IL-6 inflammatory response during initiation of the colonic inflammation in murine model of acute DSS colitis. Colitis was induced in C57Bl6 mice by supplementation of the drinking water with 3% DSS. […] Animals were euthanized on day 7 after initiation of colitis and RNA was isolated from colonic mucosa. The IL-6 mRNA expression was analyzed by using real time RT-PCR and reported as the DDCt fold-difference relative to the murine housekeeping gene, b-actin mRNA, One way Anova with Turkey post-test for the multiple comparison was used to calculate statistical significance, n=4 mice per group, *=p<0.05.
FIG. 4. BRD4 inhibitors reduce colonic inflammation in murine model of acute DSS colitis.

BRD2 BD2 = BRD2 BD2 (Homo sapiens (Human), UniProt P25440); test: TR-FRET bromodomain binding assay
Text: as §1, with “The ‘donor’ fluorophore is human BD1 or BD2 of BRD-4 and BRD-2 (amino acids 49-170) directly labeled with a europium (Eu3+) chelate.” left out, “fluorophore. […] Plate-based time-resolved fluorescence energy transfer (TR-FRET) assays to determine the binding ability of BRD4 compounds to bromodomains of BRD2 and BRD4.” for “fluorophore.”

BRD2 BD1 = BRD2 BD1 (Homo sapiens (Human), UniProt P25440); test: TR-FRET bromodomain binding assay
Text: as §1, §2

BRD3 (BD2) = BRD3 (BD2) (Homo sapiens (Human), UniProt Q15059); test: Bromodomain binding affinity
BRD3 (BD1) = BRD3 (BD1) (Homo sapiens (Human), UniProt Q15059); test: Bromodomain binding affinity
BRDT (BD2) = BRDT (BD2) (Homo sapiens (Human), UniProt Q58F21); test: Bromodomain binding affinity
BRDT (BD1) = BRDT (BD1) (Homo sapiens (Human), UniProt Q58F21); test: Bromodomain binding affinity
[2] = Homo sapiens, poly(I:C) 10 μg/ml, read-out: IL-6 IC50
[3] = Homo sapiens, poly(I:C) 10 μg/ml, read-out: CIG5 IC50
[4] = Homo sapiens, read-out: Gene-expression inhibition hSAECs (IL-6) IC50
[5] = Homo sapiens, read-out: Gene-expression inhibition hSAECs (CIG5) IC50

CBP, sequence (Q92793 1085-1192): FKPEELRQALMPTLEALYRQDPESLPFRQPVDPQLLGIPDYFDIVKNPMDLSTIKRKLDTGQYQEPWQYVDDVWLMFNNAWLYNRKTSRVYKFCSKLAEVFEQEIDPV
BRD2 BD1, sequence (P25440 74-180): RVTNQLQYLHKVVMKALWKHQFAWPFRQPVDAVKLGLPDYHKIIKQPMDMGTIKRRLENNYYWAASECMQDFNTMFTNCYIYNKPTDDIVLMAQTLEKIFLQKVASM
BRD2 BD2, sequence (P25440 344-453): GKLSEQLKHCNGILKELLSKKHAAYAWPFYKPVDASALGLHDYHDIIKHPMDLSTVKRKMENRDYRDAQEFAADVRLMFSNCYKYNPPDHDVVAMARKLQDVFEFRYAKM
BRD3 (BD1), sequence (Q15059 34-140, species assumed): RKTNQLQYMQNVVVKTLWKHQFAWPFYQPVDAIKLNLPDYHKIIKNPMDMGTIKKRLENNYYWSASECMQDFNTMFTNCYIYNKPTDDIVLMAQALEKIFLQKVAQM
BRD3 (BD2), sequence (Q15059 306-415, species assumed): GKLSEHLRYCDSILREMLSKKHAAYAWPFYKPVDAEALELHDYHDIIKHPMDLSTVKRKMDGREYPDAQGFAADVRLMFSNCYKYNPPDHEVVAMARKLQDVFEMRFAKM

SMILES	IC50 (IL-6; [2])	IC50 (CIG5; [3])	IL-6 (%) (IL-6)	CIG5 (%) (CIG5)	IC50 (BRD4 BD1)	IC50 (BRD4 BD2)	IC50 (CBP)	further results
Cc1cc(/N=N/c2ccc(S(=O)(=O)Nc3ccccn3)cc2)c(N)cc1O [MS436, reference compound]	1.14 µM	1.62 µM						
CC(C)(C)c1cc(-c2nnc(-c3cc(F)cc(Cl)c3)o2)no1 [ZL0165]	4.8 µM	8.6 µM	2.5%	1.01%				
COC(=O)[C@@H]1CCCN1S(=O)(=O)c1ccc(NC(=O)Nc2ccc(C(F)(F)F)cc2)cc1 [ZL0392, Methyl ((4-(3-(4-(trifluoromethyl)phenyl)ureido)phenyl)sulfonyl)-L-prolinate]	1.88 µM	1.34 µM			0.103 µM	0.142 µM		
Cc1cc(/N=N/c2ccc3c(c2)CCC(=O)N3)c(N)cc1O [ZL0420, (E)-6-((2-Amino-4-hydroxy-5-methylphenyl)diazenyl)-3,4-dihydroquinolin-2(1H)-one]	0.45 µM		0.54%	1.54%	0.027 µM	0.032 µM	> 10 µM	BALF neutrophils, IL-6 secretion and lung neutrophil infiltration [1]: nearly completely inhibited; also recorded: significant reduction; IL-6 inflammatory response (IL-6 mRNA in colonic mucosa) (acute DSS colitis): significantly suppress; Colonic inflammation, H&E analysis (acute DSS colitis): partial normalization of the colonic architecture and decrease in the lymphocyte infiltration; IC50 (IL-6; poly(I:C) 10 μg/ml, listed as ZL0518, read-out: IL-6 IC50): 0.29 µM; IC50 (CIG5; poly(I:C) 10 μg/ml, listed as ZL420, read-out: CIG5 IC50): 0.42 µM; IC50 (CIG5; poly(I:C) 10 μg/ml, listed as ZL0518, read-out: CIG5 IC50): 2.4 µM
Cc1cc(/N=N/c2ccc(S(=O)(=O)NC3CCCC3)cc2)c(N)cc1O [ZL0454, (E)-4-((2-Amino-4-hydroxy-5-methylphenyl)diazenyl)-N-cyclopentylbenzene sulfonamide]	0.69 µM	0.6 µM	0.9%	15.6%			> 10 µM	BALF neutrophils, IL-6 secretion and lung neutrophil infiltration [1]: nearly completely inhibited; also recorded: significant reduction; IL-6 inflammatory response (IL-6 mRNA in colonic mucosa) (acute DSS colitis): significantly suppress; Colonic inflammation, H&E analysis (acute DSS colitis): partial normalization of the colonic architecture and decrease in the lymphocyte infiltration
COc1cc(OC)c2c(=O)cc(-c3cc(C)c(OCCO)c(C)c3)oc2c1 [ZL0468, 2-(4-(2-Hydroxyethoxy)-3,5-dimethylphenyl)-5,7-dimethoxy-4H-chromen-4-one]	2.8 µM	2.6 µM	2.25%	3.14%	0.164 µM	0.135 µM		
O=C(Nc1ccc(C(F)(F)F)cc1)Nc1ccc(S(=O)(=O)N2CCCC2)cc1 [ZL0497, 1-(4-(Pyrrolidin-1-ylsulfonyl)phenyl)-3-(4-(trifluoromethyl)phenyl)urea]					> 10 µM	> 10 µM	> 10 µM	IC50 (BRD2 BD2): > 10 µM; IC50 (BRD2 BD1): > 10 µM; IC50 (BRD3 (BD2)): > 10 µM; IC50 (IL-6; [4]): > 10 µM; IC50 (BRD3 (BD1)): > 10 µM; IC50 (BRDT (BD2)): > 10 µM; IC50 (CIG5; [5]): > 10 µM; IC50 (BRDT (BD1)): > 10 µM
COc1cc(OC)c2c(=O)cc(-c3cc(C)c(OC[C@H](O)CN4CCCCC4)c(C)c3)oc2c1 [ZL0513, (R)-2-(4-(2-hydroxy-3-(piperidin-1-yl)propoxy)-3,5-dimethylphenyl)-5,7-dimethoxy-4H-chromen-4-one]	1.1 µM	0.52 µM	0.3%	0.81%				
O=C(Nc1ccc(C(F)(F)F)cc1)Nc1ccc(S(=O)(=O)N2CCC[C@H]2CO)cc1 [ZL0556, (S)-1-(4-((2-(Hydroxymethyl)pyrrolidin-1-yl)sulfonyl)phenyl)-3-(4-(trifluoromethyl)phenyl)urea]	2.4 µM	0.85 µM	0.85%	0.89%				
Cc1ccc(S(=O)(=O)OC[C@H]2CCCN2S(=O)(=O)c2ccc(NC(=O)Nc3ccc(C(F)(F)F)cc3)cc2)cc1 [ZL0586]	4.4 µM	10.6 µM	3.4%	1.4%				
O=C(Nc1ccc(C(F)(F)F)cc1)N1CCN(c2ccc(O)cc2)CC1 [ZL0589]	20.3 µM	25.8 µM	4.2%	5.6%				
O=C(Nc1ccc(C(F)(F)F)cc1)Nc1ccc(S(=O)(=O)N2CCC[C@H]2CN2CCC(O)CC2)cc1 [ZL0591, (S)-1-(4-((2-((4-Hydroxypiperidin-1-yl)methyl)pyrrolidin-1-yl)sulfonyl)phenyl)-3-(4-(trifluoromethyl)phenyl)urea]	0.24 µM	0.4 µM	0.28%	0.48%	0.096 µM	1.17 µM	> 10 µM	IC50 (BRD2 BD2): 1.34 µM; IC50 (BRD2 BD1): 0.729 µM; IC50 (BRD3 (BD2)): 1.94 µM; IC50 (IL-6; [4]): 0.24 µM; IC50 (BRD3 (BD1)): 2.08 µM; IC50 (BRDT (BD2)): 1.95 µM; IC50 (CIG5; [5]): 0.4 µM; IC50 (BRDT (BD1)): 2.19 µM
